Measured values published in US11078207B2, “Substituted pyrrolo[2,3-d]pyrimidines as HER2 inhibitors” (TAIHO PHARMACEUTICAL CO., LTD., priority 2019, dated 2021).

Key:
HER2 = target: T1, HER2 (Homo sapiens, UniProt P04626); experiment: Inhibitory effect (in vitro) on HER2 phosphorylation activity; type: biochemical; details: recombinant human HER2, ATP 5 μM, 25° C. 30 minutes
T1 construct: purchased Carna Biosciences, Inc
Description: In order to determine conditions for a method of measuring the in vitro inhibitory activity of a compound against HER2 phosphorylation activity, based on the report regarding a HER2 kinase reaction using, as a substrate, a peptide having the same sequence (5-FAM-[…]-CONH2) as that of ProfilerPro Peptide 22 of PerkinElmer (Xie H et al., PLoS One. 2011; 6(7): e21487), ProfilerPro Peptide 22 was used as a substrate. A purified recombinant human HER2 protein used in the present test was purchased from Carna Biosciences, Inc. Upon the measurement of the inhibitory activity of the compound, first, the compound of the present invention was diluted stepwise with dimethyl sulfoxide (DMSO). […] To the reaction solution, EDTA was added to a final concentration of 30 mM, so as to terminate the reaction. Finally, using LabChip (registered trademark) EZ Reader II (PerkinElmer), an unphosphorylated substrate peptide (S) and a phosphorylated peptide (P) were separated and detected according to microchannel capillary electrophoresis.

[1] = target: HER2 exon 20 insertion mutant (HER2ex20insYVMA, A775_G776insYVMA) (Homo sapiens, UniProt P04626, DUP772-775); experiment: Inhibitory action (in vitro) against HER2 exon 20 insertion mutant phosphorylation activity; type: biochemical; details: 30 min pre-incubation, ATP 200 μM, 25° C. 220 minutes
Description: In order to determine conditions for a method of measuring the in vitro inhibitory activity of a compound against HER2 exon 20 insertion mutant phosphorylation activity, as in the case of HER2, ProfilerPro Peptide 22 was used as a substrate. A purified recombinant human HER2 exon 20 insertion mutant (A775_G776insYVMA) protein is shown in SEQ ID NO: 7, and was purchased from SignalChem. Upon the measurement of the inhibitory activity of the compound, first, the compound of the present invention was diluted stepwise with dimethyl sulfoxide (DMSO). Subsequently, the HER2 exon 20 insertion mutant protein and the compound of the present invention in DMSO solution (final concentration of DMSO: 5%) were added into a buffer for the kinase reaction (13.5 mM Tris (pH 7.5), 2 mM dithiothreitol, and 0.009% Tween 20), and the obtained mixture was then pre-incubated at 25° C. for 30 minutes. Thereafter, the substrate peptide (final concentration: 1 μM), manganese chloride (final concentration: 25 mM), magnesium chloride (final concentration: 20 mM), and ATP (final concentration: 200 μM) were added into the reaction mixture, and the thus obtained mixture was then incubated at 25° C. for 220 minutes, so that the kinase reaction was carried out. To the reaction solution, EDTA was added to a final concentration of 30 mM, so as to terminate the reaction. Finally, using LabChip (registered trademark) EZ Reader II (PerkinElmer), an unphosphorylated substrate peptide (S) and a phosphorylated peptide (P) were separated and detected according to microchannel capillary electrophoresis.

SK-BR-3 cells = experiment: Growth inhibitory activity against HER2 expressing cell line SK-BR-3; type: cell-based; details: Homo sapiens, SK-BR-3, 72 h; 3 days, CellTiter-Glo 2.0
Procedure: SK-BR-3 cells as a HER2 overexpressing human breast cancer cell line were suspended in a McCoy's 5a medium (manufactured by Life Technologies) supplemented with 10% fetal bovine serum. The cell suspension was seeded in each well of a 384-well flat-bottom microplate, and was then cultured in a 5% carbon dioxide gas-containing culture vessel at 37° C. for 1 day. Thereafter, the compound of the present invention was dissolved in DMSO, and the compound was diluted to 500 times the final concentration in DMSO. The compound in the DMSO solution was diluted with DMSO solution or the medium used in the suspension of the cells, and the obtained solution was then added to each well of the culture plate so that the final concentration of DMSO was 0.2%. The obtained mixture was further cultured in the 5% carbon dioxide gas-containing culture vessel at 37° C. for 3 days. After completion of the culture for 3 days in the presence of the compound, the cells were counted using CellTiter-Glo 2.0 (manufactured by Promega), and the growth inhibition percentage was then calculated according to the following equation. […] Growth inhibitory percentage (%)=(C−T)/(C)×100 T: Emission intensity from the well to which the test compound was added C: Emission intensity from the well to which the test compound was not added

Ba/F3-HER2insYVMA cells = Ba/F3-HER2insYVMA cells (Homo sapiens, UniProt P04626, DUP772-775, cells depend on it); experiment: Growth inhibitory activity against HER2 exon 20 insertion mutant expressing cell line; type: cell-based, mouse; details: 3 days, CellTiter-Glo 2.0, read-out: HER2ex20insYVMA cell growth inhibitory activity IC50 value
Procedure: Growth inhibitory activity against the HER2 exon 20 insertion mutant was measured using Ba/F3 cells that were a mouse B lymphocyte precursor cell line, into which a human HER2 exon 20 insertion mutant gene had been introduced. The Ba/F3 cells were maintained in an RPMI-1640 medium (Thermo Fisher Scientific) supplemented with 10% fetal bovine serum (FBS), 100 U/mL penicillin, 100 μg/mL streptomycin (Thermo Fisher Scientific) and 1 ng/mL mouse interleukin-3 (mIL-3) (CST).
Upon evaluation of cell growth inhibitory activity, the Ba/F3-HER2insYVMA cells were suspended in an RPMI-1640 medium supplemented with 10% FBS, 100 U/mL penicillin, and 100 μg/mL streptomycin. The cell suspension was seeded in each well of a 96-well flat-bottom microplate, and was then cultured in a 5% carbon dioxide gas-containing culture vessel at 37° C. for 1 day. The compound of the present invention was dissolved in DMSO, and was then diluted with DMSO or the medium used in the suspension of the cells. The obtained solution was then added to each well of the culture plate, so that the final concentration of DMSO became 0.2%. The obtained mixture was further cultured in the 5% carbon dioxide gas-containing culture vessel at 37° C. for 3 days. After completion of the culture for 3 days in the presence of the compound, the cells were counted using CellTiter-Glo 2.0 (manufactured by Promega), and the growth inhibition percentage was then calculated according to the following equation. […] Growth inhibitory percentage (%)=(C−T)/(C)×100 T: Emission intensity from the well to which the test compound was added C: Emission intensity from the well to which the test compound was not added

[2] = Evaluation of oral absorbability; type: in vivo, BALB/cA mice; details: oral 50 mg/kg/day; for AUC(0-t): mouse, plasma, BALB/cA mice
Procedure: The compound of the present invention was suspended or dissolved in 0.5% HPMC aqueous solution and 0.1 N hydrochloric acid, and the obtained suspension or solution was orally administered to BALB/cA mice (CLEA Japan, Inc.) at a dose of 50 mg/kg/day. At 0.5, 1, 2, 4 and 6 hours after completion of the oral administration, blood was collected from the facial vein over time, so as to obtain plasma. The concentration of the compound in the obtained plasma was measured by LC-MS/MS, and the oral absorbability of the present compound was evaluated.

[3] = Evaluation of brain penetration properties; type: in vivo, BALB/cA mice; details: 0.5 hours after oral 50 mg/kg/day
NCI-N87 cells = experiment: Growth inhibitory activity against HER2 expressing cell line NCI-N87; type: cell-based; details: Homo sapiens, NCI-N87, 72 h; 3 days, CellTiter-Glo 2.0
Procedure: NCI-N87 cells as a HER2 overexpressing human stomach cancer cell line (American Type Culture Collection, Cat No. ATCC (registered trademark) CRL-5822) were suspended in an RPMI640 medium (Wako Pure Chemical Industries, Ltd.) supplemented with 10% fetal bovine serum. Subsequently, the cell suspension was seeded in each well of a 96-well flat-bottom microplate, and was then cultured in a 5% carbon dioxide gas-containing culture vessel at 37° C. for 1 day. Thereafter, the compound of the present invention was dissolved in DMSO, and the compound was diluted to 1000 times the final concentration in DMSO. The compound in the DMSO solution was diluted with the medium used in the suspension of the cells, and the obtained solution was then added to each well of the culture plate, so that the final concentration of DMSO became 0.1%. Regarding a control well, DMSO was diluted with the medium used in the suspension of the cells, and the obtained solution was then added to each well of the culture plate, so that the final concentration of DMSO became 0.1%. After addition of a drug solution, the obtained mixture was further cultured in the 5% carbon dioxide gas-containing culture vessel at 37° C. for 3 days. After completion of the culture for 3 days in the presence of the compound, the cells were counted using CellTiter-Glo 2.0 (manufactured by Promega) in accordance with the protocols recommended by Promega. The growth inhibition percentage was calculated according to the following equation. […] Growth inhibitory percentage (%)=(C−T)/(C)×100 T: Emission intensity from the well to which the test compound was added C: Emission intensity from the well to which the test compound was not added

T1 sequence (P04626 23-1255): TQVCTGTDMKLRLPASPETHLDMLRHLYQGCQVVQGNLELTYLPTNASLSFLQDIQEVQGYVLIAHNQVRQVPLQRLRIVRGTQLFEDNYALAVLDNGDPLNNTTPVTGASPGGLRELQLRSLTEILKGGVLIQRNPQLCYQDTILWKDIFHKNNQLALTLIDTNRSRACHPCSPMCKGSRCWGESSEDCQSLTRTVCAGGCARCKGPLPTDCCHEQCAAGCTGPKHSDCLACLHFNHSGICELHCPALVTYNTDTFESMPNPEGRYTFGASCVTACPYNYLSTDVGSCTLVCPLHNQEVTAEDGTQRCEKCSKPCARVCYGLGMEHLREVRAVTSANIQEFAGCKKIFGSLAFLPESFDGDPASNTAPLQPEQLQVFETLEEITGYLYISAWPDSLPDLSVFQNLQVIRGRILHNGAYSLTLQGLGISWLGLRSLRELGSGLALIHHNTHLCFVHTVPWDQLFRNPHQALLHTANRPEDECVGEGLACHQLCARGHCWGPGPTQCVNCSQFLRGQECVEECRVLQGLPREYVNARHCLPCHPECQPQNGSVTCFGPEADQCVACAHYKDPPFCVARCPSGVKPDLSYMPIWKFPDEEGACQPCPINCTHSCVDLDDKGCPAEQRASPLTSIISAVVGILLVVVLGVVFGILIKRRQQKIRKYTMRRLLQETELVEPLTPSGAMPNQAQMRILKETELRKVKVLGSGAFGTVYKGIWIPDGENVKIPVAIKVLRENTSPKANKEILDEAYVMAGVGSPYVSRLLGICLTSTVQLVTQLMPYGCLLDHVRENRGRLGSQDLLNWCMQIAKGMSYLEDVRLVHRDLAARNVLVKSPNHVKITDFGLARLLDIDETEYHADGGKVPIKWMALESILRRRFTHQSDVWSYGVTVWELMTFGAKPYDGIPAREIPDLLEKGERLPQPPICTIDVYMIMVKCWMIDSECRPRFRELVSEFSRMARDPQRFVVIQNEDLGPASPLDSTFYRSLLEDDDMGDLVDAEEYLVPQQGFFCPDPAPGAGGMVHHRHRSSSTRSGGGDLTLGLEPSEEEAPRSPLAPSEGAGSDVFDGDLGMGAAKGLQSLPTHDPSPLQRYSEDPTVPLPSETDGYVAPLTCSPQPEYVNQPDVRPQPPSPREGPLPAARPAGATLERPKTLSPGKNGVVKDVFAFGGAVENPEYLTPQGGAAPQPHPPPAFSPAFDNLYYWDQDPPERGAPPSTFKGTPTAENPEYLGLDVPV
Sequence of Ba/F3-HER2insYVMA cells (P04626 with tags, fused parts or gaps DUP772-775): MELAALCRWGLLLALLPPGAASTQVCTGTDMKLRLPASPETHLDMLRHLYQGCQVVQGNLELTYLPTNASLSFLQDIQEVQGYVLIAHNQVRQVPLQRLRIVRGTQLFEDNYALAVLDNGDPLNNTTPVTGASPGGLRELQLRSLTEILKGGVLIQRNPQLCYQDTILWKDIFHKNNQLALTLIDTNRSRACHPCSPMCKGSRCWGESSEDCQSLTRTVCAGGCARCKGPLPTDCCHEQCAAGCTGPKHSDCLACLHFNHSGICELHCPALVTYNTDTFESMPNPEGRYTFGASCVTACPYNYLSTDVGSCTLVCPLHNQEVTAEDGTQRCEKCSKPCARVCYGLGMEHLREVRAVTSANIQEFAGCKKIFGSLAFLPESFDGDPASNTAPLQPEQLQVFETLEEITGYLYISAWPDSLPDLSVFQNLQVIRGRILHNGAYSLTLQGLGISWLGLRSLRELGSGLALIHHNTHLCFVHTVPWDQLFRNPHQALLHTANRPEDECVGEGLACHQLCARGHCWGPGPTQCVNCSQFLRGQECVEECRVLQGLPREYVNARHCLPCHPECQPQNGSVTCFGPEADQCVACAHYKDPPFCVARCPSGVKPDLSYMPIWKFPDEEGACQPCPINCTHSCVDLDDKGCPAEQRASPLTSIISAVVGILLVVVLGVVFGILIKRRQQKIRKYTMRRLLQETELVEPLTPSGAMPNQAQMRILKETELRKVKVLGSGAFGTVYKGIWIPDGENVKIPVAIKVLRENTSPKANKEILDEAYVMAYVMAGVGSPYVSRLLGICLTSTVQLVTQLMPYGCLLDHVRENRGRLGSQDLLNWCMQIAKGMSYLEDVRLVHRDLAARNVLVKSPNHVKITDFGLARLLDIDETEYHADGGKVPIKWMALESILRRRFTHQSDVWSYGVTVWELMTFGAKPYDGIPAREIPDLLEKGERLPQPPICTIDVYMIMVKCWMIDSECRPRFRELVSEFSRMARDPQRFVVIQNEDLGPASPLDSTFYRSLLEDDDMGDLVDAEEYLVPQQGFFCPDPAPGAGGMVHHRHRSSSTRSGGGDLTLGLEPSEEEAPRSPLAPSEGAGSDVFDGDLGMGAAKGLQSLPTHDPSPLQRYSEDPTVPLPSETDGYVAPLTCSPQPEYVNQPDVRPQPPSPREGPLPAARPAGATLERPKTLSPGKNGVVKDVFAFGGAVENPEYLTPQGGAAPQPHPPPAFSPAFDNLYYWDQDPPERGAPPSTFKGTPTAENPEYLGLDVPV
Sequence of HER2 exon 20 insertion mutant (HER2ex20insYVMA, A775_G776insYVMA) (P04626 with tags, fused parts or gaps DUP772-775): as above

`CC#Cc1c(C(=O)Nc2ccc(COC)cc2)c2c(N)ncnc2n1C1(C)CC1` [Comp. Ex. 1, 4-Amino-N-(4-(methoxymethyl)phenyl)-7-(1-methylcyclopropyl)-6-(prop-1-yn-1-yl)-7H-pyrrolo[2,3-d]pyrimidine-5-carboxamide, reference compound] showed an IC50 (HER2) of over 10000 nM, an IC50 [1] of over 10000 nM and an IC50 (SK-BR-3 cells) of over 10000 nM. It also gave a GI50 (Ba/F3-HER2insYVMA cells) of over 10000 nM.

For `C=CC(=O)N1C[C@H](n2nc(C(=O)Nc3ccc(CC(=O)N(C)C)c(C)c3C)c3c(N)ncnc32)C[C@@H]1C` [Comp. Ex. 2, 1-((3R,5S)-1-acryloyl-5-methylpyrrolidin-3-yl)-4-amino-N-(4-(2-(dimethylamino)-2-oxoethyl)-2,3-dimethylphenyl)-1H-pyrazolo[3,4-d]pyrimidine-3-carboxamide, reference compound], the AUC(0-t) [2] was 1.5 µM·h, the “oral absorbability attenuated versus the compound of the present invention” value ([2]; mice) was “more than 4 times” and the IC50 (HER2) was 19 nM. The “brain concentration attenuated versus the compound of the present invention” value ([3]; mice) was “more than 80 times”, the Kp at 0.5 h ([3]; mouse, brain, BALB/cA mice, read-out: Kp value (Compound concentration in brain/plasma)) was 0.005 and the concentration at 0.5 h ([3]; mouse, plasma, BALB/cA mice, read-out: Compound concentration in plasma) was 1600 nM. The IC50 [1] was 4.4 nM, the IC50 (SK-BR-3 cells) was 25 nM and the GI50 (Ba/F3-HER2insYVMA cells) was 1900 nM.

`C=CC(=O)N1C[C@H](n2c(C#CC)c(C(=O)NCC3CCCCC3)c3c(N)ncnc32)C[C@@H]1C` [Comp. Ex. 3, 7-((3R,5S)-1-acryloyl-5-methylpyrrolidin-3-yl)-4-amino-N-(cyclohexylmethyl)-6-(prop-1-yn-1-yl)-7H-pyrrolo[2,3-d]pyrimidine-5-carboxamide] showed an IC50 (HER2) of 630 nM, an IC50 [1] of 380 nM and an IC50 (SK-BR-3 cells) of 4300 nM. It also gave a GI50 (Ba/F3-HER2insYVMA cells) of 3400 nM.

Work on `C=CC(=O)N1C[C@H](n2c(C#CC)c(C(=O)NCc3ccccc3C)c3c(N)ncnc32)C[C@@H]1C` [Comp. Ex. 4, 7-((3R,5S)-1-acryloyl-5-methylpyrrolidin-3-yl)-4-amino-N-(2-methylbenzyl)-6-(prop-1-yn-1-yl)-7H-pyrrolo[2,3-d]pyrimidine-5-carboxamide] yielded an IC50 (HER2) of 54 nM, an IC50 [1] of 11 nM and an IC50 (SK-BR-3 cells) of 340 nM. For the same compound, the GI50 (Ba/F3-HER2insYVMA cells) was 900 nM.

With `C=CC(=O)N1C[C@H](n2c(C#CC)c(C(=O)N(C)[C@H](C)c3ccccc3)c3c(N)ncnc32)C[C@@H]1C` [Comp. Ex. 5, 7-((3R,5S)-1-acryloyl-5-methylpyrrolidin-3-yl)-4-amino-N-methyl-N—((R)-1-phenylethyl)-6-(prop-1-yn-1-yl)-7H-pyrrolo[2,3-d]pyrimidine-5-carboxamide] the IC50 (HER2) was 130 nM, the IC50 [1] was 14 nM and the IC50 (SK-BR-3 cells) was 400 nM. It also gave a GI50 (Ba/F3-HER2insYVMA cells) of 1300 nM.

Compound `CC#Cc1c(C(=O)N[C@H](C)c2ccccc2)c2c(N)ncnc2n1[C@@H]1C[C@H](C)N(C(=O)/C=C/C)C1` [Comp. Ex. 6, 4-Amino-7-((3R,5S)-1-((E)-but-2-enoyl)-5-methylpyrrolidin-3-yl)-N—((R)-1-phenylethyl)-6-(prop-1-yn-1-yl)-7H-pyrrolo[2,3-d]pyrimidine-5-carboxamide] has an IC50 (HER2) of 390 nM, an IC50 [1] of over 10000 nM and an IC50 (SK-BR-3 cells) of 3000 nM. The GI50 (Ba/F3-HER2insYVMA cells) was 4100 nM.

`C=CC(=O)N1C[C@H](n2c(C#CC)c(C(=O)N[C@H](C)c3ccc(F)cc3F)c3c(N)ncnc32)C[C@@H]1C` [Example 7, 7-((3R,5S)-1-acryloyl-5-methylpyrrolidin-3-yl)-4-amino-N—((R)-1-(2,4-difluorophenyl)ethyl)-6-(prop-1-yn-1-yl)-7H-pyrrolo[2,3-d]pyrimidine-5-carboxamide] gave an AUC(0-t) [2] of 15 µM·h, an IC50 (HER2) of 4.9 nM and an IC50 [1] of 0.39 nM. The IC50 (SK-BR-3 cells) was 12 nM, the GI50 (Ba/F3-HER2insYVMA cells) was 40 nM and the IC50 (NCI-N87 cells) was 11.1 nM.

`C=CC(=O)N1C[C@H](n2c(C#CC(C)C)c(C(=O)NC(C)(C)c3ccccc3F)c3c(N)ncnc32)C[C@@H]1C` [Example 15, 7-((3R,5S)-1-acryloyl-5-methylpyrrolidin-3-yl)-4-amino-N-(2-(2-fluorophenyl)propan-2-yl)-6-(3-methylbut-1-yn-1-yl)-7H-pyrrolo[2,3-d]pyrimidine-5-carboxamide] showed an AUC(0-t) [2] of 34 µM·h, an IC50 (HER2) of 4.6 nM and an IC50 [1] of 0.42 nM. For the same compound, the IC50 (SK-BR-3 cells) was 7 nM, the GI50 (Ba/F3-HER2insYVMA cells) was 40 nM and the IC50 (NCI-N87 cells) was 11.6 nM.
